#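 Briefly, cells in 96-well plates were exposed to five compound concentrations for 48 h, and endpoints were estimated by linear interpolation. GI50: concentration for 50% inhibition of growth. TGI marks complete inhibition of growth.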
# Assays:
# Experiment in all cases: NCI anticancer screen, dose series, 48 h
# HCC-2998 colon = system: HCC-2998 colon
# TK-10 renal = system: TK-10 renal
# ACHN renal = system: ACHN renal
# EKVX NSCLC = system: EKVX NSCLC
# NCI-H23 lung = system: NCI-H23 lung
# NCI-H522 lung = system: NCI-H522 lung
# SF-268 CNS = system: SF-268 CNS
Compound,TGI (HCC-2998 colon),TGI (TK-10 renal),TGI (ACHN renal),TGI (EKVX NSCLC),TGI (NCI-H23 lung),TGI (NCI-H522 lung),TGI (SF-268 CNS),GI50 (HCC-2998 colon),GI50 (NCI-H522 lung),GI50 (TK-10 renal),GI50 (ACHN renal),GI50 (SF-268 CNS),GI50 (EKVX NSCLC),GI50 (NCI-H23 lung)
CCOC(=O)[C@@]12C(C)=CC(=O)O[C@]1(C)C1C(=O)NC(=O)C12 (stereo not given in full),> 100 µM,> 100 µM,> 100 µM,> 100 µM,> 100 µM,,,,,,,,,
Cc1cc(Cl)cc2c1NC(=O)C2(O)CC(=O)c1ccc(Br)cc1 (stereo not given),> 100 µM,> 100 µM,> 100 µM,> 100 µM,99.4 µM,> 100 µM,> 100 µM,,,,,,,
O=C(c1ccccc1)c1nnn(Cc2ccccc2Cn2nnc(C(=O)c3ccccc3)c2C(=O)c2ccccc2)c1C(=O)c1ccccc1,> 100 µM,> 100 µM,> 100 µM,> 100 µM,> 100 µM,> 100 µM,> 100 µM,,,,,,,
Cc1ccc(N2C(=O)/C(=C/c3ccc(N(CCC#N)CCC#N)cc3)N=C2COc2ccc(Cl)cc2Cl)cc1,,> 100 µM,> 100 µM,> 100 µM,> 100 µM,> 100 µM,> 100 µM,,,,,,,
Brc1cc(C2OCCCO2)ccc1OCc1ccccc1,> 100 µM,> 100 µM,> 100 µM,> 100 µM,> 100 µM,> 100 µM,> 100 µM,,,,,,,
CN1CCC(c2c(O)cc(O)c3c(=O)cc(-c4ccccc4Cl)oc23)C(O)C1 (stereo not given),0.454 µM,> 100 µM,,0.135 µM,0.208 µM,0.448 µM,0.238 µM,,,,,,,
CC1=NN(c2ccccc2)C(=O)C12[C@H](c1ccccc1)C2(C#N)C#N (stereo not given in full),34.1 µM,25 µM,21.5 µM,33.6 µM,11 µM,11.5 µM,20.6 µM,,,,,,,
CCC1CCCCN1CC(C(C)=O)C(c1ccccc1)c1c(O)c2ccccc2oc1=O (stereo not given),,> 100 µM,> 100 µM,> 100 µM,> 100 µM,> 100 µM,> 100 µM,,,,,,,
O=[N+]([O-])c1cc(/C=N\NS(=O)(=O)c2ccc(Cl)cc2)c(O)c([N+](=O)[O-])c1,> 100 µM,> 100 µM,> 100 µM,> 100 µM,50.8 µM,52.4 µM,> 100 µM,,,,,,,
COC(=O)/C(C#N)=C1\CCC(OC)N1C (stereo not given),> 100 µM,> 100 µM,> 100 µM,> 100 µM,> 100 µM,> 100 µM,> 100 µM,,,,,,,
CCCCNS(=O)(=O)c1ccc(-c2ccc3c(c2)-c2ccc(S(=O)(=O)NCCCC)cc2S3(=O)=O)cc1,> 100 µM,83.2 µM,> 100 µM,> 100 µM,43 µM,66.2 µM,31.3 µM,,,,,,,
O=c1cc[nH]cc1-c1c[nH]ccc1=O,> 100 µM,> 100 µM,> 100 µM,> 100 µM,> 100 µM,> 100 µM,,,,,,,,
O=c1c2ccccc2oc2ccccc12 (tested in a mixture with another compound),89.9 µM,,> 100 µM,> 100 µM,,> 100 µM,> 100 µM,,,,,,,
COc1cc(Cc2c(C)cc(OC)c3[nH]c4ccccc4c23)cc2c1[nH]c1ccccc12,14.7 µM,> 25 µM,> 25 µM,,,11.6 µM,24.9 µM,5.43 µM,5.03 µM,12 µM,4.67 µM,6.97 µM,,
O=C(O)c1c2c(cc3c(=O)c4ccccc4[nH]c13)CCCC2,> 100 µM,> 100 µM,> 100 µM,> 100 µM,> 100 µM,,> 100 µM,,,,,,,
CS(=O)(=O)c1ccc(COP(N)(=O)N(CCCl)CCCl)cc1 (stereo not given),> 100 µM,> 100 µM,> 100 µM,,> 100 µM,> 100 µM,> 100 µM,,,,,,,
COc1ccc(N2C(=O)[C@@H](N=[N+]=[N-])[C@@H]2[C@H]2COC(C)(C)O2)cc1,> 100 µM,,> 100 µM,> 100 µM,> 100 µM,> 100 µM,> 100 µM,,,,,,,
Cc1cc(=O)[nH]c(NNC(C#N)c2ccccc2O)n1 (stereo not given),,> 100 µM,90.8 µM,,> 100 µM,> 100 µM,> 100 µM,,,,,,,
Cc1ccccc1-n1c(=S)[nH]c2c(sc(=O)n2-c2ccccc2C)c1=O,> 100 µM,,> 100 µM,> 100 µM,> 100 µM,> 100 µM,> 100 µM,,,,,,,
CCCCCCCC(=O)[O-].CCCCCCCC(=O)[O-].N.N.N.N.[Co+3].[O-][Cl+3]([O-])([O-])[O-],> 100 µM,> 100 µM,> 100 µM,> 100 µM,> 100 µM,,> 100 µM,> 100 µM,,57.1 µM,> 100 µM,19.1 µM,> 100 µM,> 100 µM
COc1ccc(NC(=O)CC(=O)N/N=C(\C)c2cc3ccccc3oc2=O)cc1,,> 100 µM,> 100 µM,> 100 µM,> 100 µM,> 100 µM,,,,,,,,
COc1ccc(Br)c(CN2CCc3ccccc32)c1OS(=O)(=O)c1ccc(C)cc1,> 100 µM,,> 100 µM,> 100 µM,85.1 µM,30.8 µM,> 100 µM,,,,,,,

# Reference: PubChem BioAssay (NCI)
